PubChem BioAssay AID248 (DTP/NCI, 2004)
Where “and” joins values, the source holds several entries; their conditions need not be identical. Identical values can stand only once. Inconclusive results and toxic doses are left out.

Test system: L1210 leukemia ip in BDF1 mice, survival T/C
Experiment: NCI In Vivo Anticancer Drug Screen. Data for tumor model L1210 Leukemia (intraperitoneal) in B6D2F1 (BDF1) mice
Settings: endpoint: mean survival time, higher = longer survival
Summary of the method: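 In this screen, tumor-bearing mice given compound are compared to those given vehicle, and their survival values are reported as a treated-to-control quotient.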

[1] = dose: 200.0 mg/kg/injection, schedule: Q01DX001 (ip), vehicle: carboxymethylcellulose (CMC)
[2] = dose: 100.0 mg/kg/injection, schedule: Q04DX003 (ip), vehicle: saline with Tween-80
[3] = dose: 200.0 mg/kg/injection, schedule: Q04DX003 (ip), vehicle: saline with Tween-80
[4] = dose: 400.0 mg/kg/injection, schedule: Q04DX003 (ip), vehicle: saline with Tween-80
[5] = dose: 12.5 mg/kg/injection, schedule: Q01DX009 (ip), vehicle: saline
[6] = dose: 25.0 mg/kg/injection, schedule: Q01DX009 (ip), vehicle: saline
[7] = dose: 100.0 mg/kg/injection, schedule: Q04DX003 (ip), vehicle: Klucel (hydroxypropylcellulose) (HPC)
[8] = dose: 200.0 mg/kg/injection, schedule: Q04DX003 (ip), vehicle: Klucel (hydroxypropylcellulose) (HPC)
[9] = dose: 400.0 mg/kg/injection, schedule: Q04DX003 (ip), vehicle: Klucel (hydroxypropylcellulose) (HPC)
[10] = dose: 100.0 mg/kg/injection, schedule: Q01DX009 (ip), vehicle: Klucel (hydroxypropylcellulose) (HPC)
[11] = dose: 100.0 mg/kg/injection, schedule: Q01DX001 (ip), vehicle: saline

CCSc1ncc(Br)c(Sc2nc(N)nc3nc[nH]c23)n1
T/C (dose: 1.5 mg/kg/injection, schedule: Q01DX Z (ip), vehicle: carboxymethylcellulose (CMC)): 107 % of control | T/C (dose: 12.0 mg/kg/injection, schedule: Q01DX Z (ip), vehicle: carboxymethylcellulose (CMC)): 150 % of control | T/C (dose: 25.0 mg/kg/injection, schedule: Q01DX001 (ip), vehicle: carboxymethylcellulose (CMC)): 121 % of control | T/C (dose: 25.0 mg/kg/injection, schedule: Q01DX Z (ip), vehicle: methylcellulose (MC)): 86 % of control | T/C [1]: 116 % of control

CC(C)/C(=N\Nc1ccc([N+](=O)[O-])cc1[N+](=O)[O-])c1ccccc1
T/C [2]: 96 % of control | T/C [3]: 106 % of control | T/C [4]: 100 % of control

CN(C)c1nc2c(N)ncnc2n1C1OC(CO)C(O)C1O (stereo not drawn)
T/C (dose: 6.25 mg/kg/injection, schedule: Q01DX009 (ip), vehicle: saline): 100 % of control | T/C (dose: 12.5 mg/kg/injection, schedule: Q01DX005 (ip), vehicle: saline): 95 % of control | T/C [5]: 96 % of control | T/C (dose: 25.0 mg/kg/injection, schedule: Q01DX005 (ip), vehicle: saline): 101 % of control | T/C [6]: 110 % of control | T/C (dose: 50.0 mg/kg/injection, schedule: Q01DX005 (ip), vehicle: saline): 108 % of control

CCN(CC)C(=O)c1cc(NC(=O)Nc2ccc(C3=NCCN3)cc2)cc(NC(=O)Nc2ccc(C3=NCCN3)cc2)c1
T/C (dose: 62.0 mg/kg/injection, schedule: Q01DX Z (ip), vehicle: carboxymethylcellulose (CMC)): 91 % of control | T/C (dose: 125.0 mg/kg/injection, schedule: Q01DX Z (ip), vehicle: carboxymethylcellulose (CMC)): 97 % of control | T/C (dose: 250.0 mg/kg/injection, schedule: Q01DX Z (ip), vehicle: carboxymethylcellulose (CMC)): 97 % of control | T/C (dose: 500.0 mg/kg/injection, schedule: Q01DX Z (ip), vehicle: carboxymethylcellulose (CMC)): 88 % of control

O=[N+]([O-])c1c[c]([Hg][Cl])c(O)[c]([Hg][Cl])c1
T/C (dose: 3.13 mg/kg/injection, schedule: Q01DX009 (ip), vehicle: saline with Tween-80): 88 % of control | T/C (dose: 3.13 mg/kg/injection, schedule: Q04DX002 (ip), vehicle: saline with Tween-80): 107 % of control | T/C (dose: 3.13 mg/kg/injection, schedule: Q04DX003 (ip), vehicle: saline with Tween-80): 88 % of control | T/C (dose: 6.25 mg/kg/injection, schedule: Q01DX009 (ip), vehicle: saline with Tween-80): 86 % of control | T/C (dose: 6.25 mg/kg/injection, schedule: Q04DX002 (ip), vehicle: saline with Tween-80): 96 % of control | T/C (dose: 6.25 mg/kg/injection, schedule: Q04DX003 (ip), vehicle: saline with Tween-80): 97 % of control | T/C (dose: 12.5 mg/kg/injection, schedule: Q01DX009 (ip), vehicle: saline with Tween-80): 91 % of control | T/C (dose: 12.5 mg/kg/injection, schedule: Q04DX002 (ip), vehicle: saline with Tween-80): 93 % of control | T/C (dose: 12.5 mg/kg/injection, schedule: Q04DX003 (ip), vehicle: saline with Tween-80): 87 % of control

O=C(O)CCC1(CCC(=O)O)SCSCS1
T/C [7]: 93 % of control | T/C [8]: 98 % of control | T/C [9]: 93 % of control

Cc1ccc(N=NNc2ccc(C)cc2)cc1
T/C (dose: 25.0 mg/kg/injection, schedule: Q01DX009 (ip), vehicle: Klucel (hydroxypropylcellulose) (HPC)): 96 % of control | T/C (dose: 50.0 mg/kg/injection, schedule: Q01DX009 (ip), vehicle: Klucel (hydroxypropylcellulose) (HPC)): 97 % of control | T/C (dose: 75.0 mg/kg/injection, schedule: Q04DX003 (ip), vehicle: Klucel (hydroxypropylcellulose) (HPC)): 100 % of control | T/C [10]: 97 % of control | T/C (dose: 150.0 mg/kg/injection, schedule: Q04DX003 (ip), vehicle: Klucel (hydroxypropylcellulose) (HPC)): 100 % of control | T/C (dose: 300.0 mg/kg/injection, schedule: Q04DX003 (ip), vehicle: Klucel (hydroxypropylcellulose) (HPC)): 100 % of control

O=[N+]([O-])c1ccc(/C=N/c2oc(-c3ccc([N+](=O)[O-])cc3)nc2Sc2ccccc2)cc1
T/C (dose: 25.0 mg/kg/injection, schedule: Q04DX002 (ip), vehicle: Klucel (hydroxypropylcellulose) (HPC)): 106 % of control | T/C (dose: 200.0 mg/kg/injection, schedule: Q04DX002 (ip), vehicle: Klucel (hydroxypropylcellulose) (HPC)): 96 % of control and 97 % of control and 92 % of control | T/C (dose: 400.0 mg/kg/injection, schedule: Q04DX002 (ip), vehicle: Klucel (hydroxypropylcellulose) (HPC)): 96 % of control

CNC(=O)Nc1ccccc1C(=O)OC
T/C [10]: 100 % of control | T/C [7]: 97 % of control | T/C (dose: 200.0 mg/kg/injection, schedule: Q01DX009 (ip), vehicle: Klucel (hydroxypropylcellulose) (HPC)): 98 % of control | T/C [8]: 97 % of control | T/C (dose: 400.0 mg/kg/injection, schedule: Q01DX009 (ip), vehicle: Klucel (hydroxypropylcellulose) (HPC)): 98 % of control | T/C [9]: 101 % of control

Cc1cc2cccc[n+]2cc1C
T/C [5]: 95 % of control | T/C [6]: 98 % of control

CC1(C)CCC2(C)CCCCC2C1O (stereo not drawn)
T/C (dose: 50.0 mg/kg/injection, schedule: Q04DX002 (ip), vehicle: saline with Tween-80): 92 % of control | T/C (dose: 100.0 mg/kg/injection, schedule: Q04DX002 (ip), vehicle: saline with Tween-80): 96 % of control | T/C (dose: 200.0 mg/kg/injection, schedule: Q04DX002 (ip), vehicle: saline with Tween-80): 101 % of control

COc1ccc(C=NC2C(OC(C)=O)OC(COS(=O)(=O)c3ccc(C)cc3)C(OC(C)=O)C2OC(C)=O)cc1 (stereo not drawn)
T/C [2]: 101 % of control | T/C [3]: 101 % of control | T/C [4]: 93 % of control

S=P(c1cccc2ccccc12)(c1cccc2ccccc12)c1cccc2ccccc12
T/C [11]: 97 % of control | T/C (dose: 200.0 mg/kg/injection, schedule: Q01DX001 (ip), vehicle: saline): 95 % of control | T/C (dose: 400.0 mg/kg/injection, schedule: Q01DX001 (ip), vehicle: saline): 95 % of control

Cc1c2c(cc3c1CCC1(C)C3=CCC1C(C)CCC(C)C(C)C)CCCC2 (stereo not drawn)
T/C (dose: 100.0 mg/kg/injection, schedule: Q01DX001 (ip), vehicle: saline with Tween-80): 93 % of control | T/C (dose: 200.0 mg/kg/injection, schedule: Q01DX001 (ip), vehicle: saline with Tween-80): 95 % of control | T/C (dose: 400.0 mg/kg/injection, schedule: Q01DX001 (ip), vehicle: saline with Tween-80): 91 % of control

CC(C)(C)NC(=O)Nc1ccc2ccccc2c1
T/C (dose: 100.0 mg/kg/injection, schedule: Q01DX009 (ip), vehicle: other): 93 % of control | T/C (dose: 200.0 mg/kg/injection, schedule: Q01DX009 (ip), vehicle: other): 89 % of control | T/C (dose: 400.0 mg/kg/injection, schedule: Q01DX009 (ip), vehicle: other): 94 % of control

CC(=O)OC1CCSc2ccccc21 (stereo not drawn)
T/C (dose: 50.0 mg/kg/injection, schedule: Q01DX001 (ip), vehicle: carboxymethylcellulose (CMC)): 95 % of control | T/C (dose: 100.0 mg/kg/injection, schedule: Q01DX001 (ip), vehicle: carboxymethylcellulose (CMC)): 93 % of control | T/C [1]: 104 % of control | T/C (dose: 400.0 mg/kg/injection, schedule: Q01DX001 (ip), vehicle: carboxymethylcellulose (CMC)): 90 % of control

Nc1ccc(N=Nc2ccc(C(=O)Nc3ccc4cc(S(=O)(=O)O)ccc4c3)cc2)c(N)c1N=Nc1ccc(N=Nc2ccc(O)c(C(=O)O)c2)cc1
T/C (dose: 25.0 mg/kg/injection, schedule: Q01DX001 (ip), vehicle: saline): 94 % of control | T/C [6]: 105 % of control | T/C (dose: 25.0 mg/kg/injection, schedule: Q04DX003 (ip), vehicle: saline): 109 % of control | T/C (dose: 50.0 mg/kg/injection, schedule: Q01DX001 (ip), vehicle: saline): 90 % of control | T/C (dose: 50.0 mg/kg/injection, schedule: Q01DX009 (ip), vehicle: saline): 94 % of control | T/C (dose: 50.0 mg/kg/injection, schedule: Q04DX003 (ip), vehicle: saline): 95 % of control | T/C [11]: 97 % of control | T/C (dose: 100.0 mg/kg/injection, schedule: Q01DX009 (ip), vehicle: saline): 87 % of control | T/C (dose: 100.0 mg/kg/injection, schedule: Q04DX003 (ip), vehicle: saline): 102 % of control

O=C(Nc1nccs1)Nc1ccccc1C(F)(F)F
T/C (dose: 100.0 mg/kg/injection, schedule: Q01DX009 (ip), vehicle: saline with Tween-80): 100 % of control | T/C (dose: 200.0 mg/kg/injection, schedule: Q01DX009 (ip), vehicle: saline with Tween-80): 106 % of control | T/C (dose: 400.0 mg/kg/injection, schedule: Q01DX009 (ip), vehicle: saline with Tween-80): 92 % of control
